Numbered stars: 1 amine (or outer) side, 2 acyl side, 3 side chain; on linkers, the order of the positions; unused ones are H or OH. Square brackets hold non-standard residues; d marks the D form. Peptide text beside a SMILES is read from it. ξ: configuration not given here. X1 = O=C([C@H]1CCC[C@@H]1N[*:1])[*:2]; X2 = O=C([C@H]1CNC[C@@H]1N[*:1])[*:2]; ξβ3hN = NC(=O)CC(N)CC(=O)O; ξβ3hL = CC(C)CC(N)CC(=O)O; ξβ3hK = NCCCCC(N)CC(=O)O; βAla = NCCC(=O)O
What was measured:
[1] = biological target: T1, Vasoactive intestinal polypeptide receptor 1 (Homo sapiens, UniProt P32241); test: Agonist activity at human VIPR1 expressed in CHOK1 cells assessed as intracellular cAMP accumulation after 60 mins by PathHunter assay; format: functional, cell-based
T1 sequence (P32241 whole entry): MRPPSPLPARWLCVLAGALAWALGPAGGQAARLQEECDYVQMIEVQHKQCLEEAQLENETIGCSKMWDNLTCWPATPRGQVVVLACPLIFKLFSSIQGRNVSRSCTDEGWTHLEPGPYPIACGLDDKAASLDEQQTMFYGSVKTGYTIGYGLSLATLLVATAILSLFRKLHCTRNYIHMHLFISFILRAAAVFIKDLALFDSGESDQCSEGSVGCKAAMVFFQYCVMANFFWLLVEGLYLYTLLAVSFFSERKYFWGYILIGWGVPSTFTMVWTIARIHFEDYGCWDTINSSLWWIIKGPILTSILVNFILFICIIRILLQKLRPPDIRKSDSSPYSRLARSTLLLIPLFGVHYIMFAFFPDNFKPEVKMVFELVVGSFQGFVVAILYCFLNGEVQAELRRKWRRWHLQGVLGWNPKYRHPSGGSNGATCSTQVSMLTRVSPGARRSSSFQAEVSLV

[2] = biological target: T2, Vasoactive intestinal polypeptide receptor 2 (Homo sapiens, UniProt P41587); test: Agonist activity at human VIPR2 expressed in CHOK1 cells assessed as intracellular cAMP accumulation after 60 mins by PathHunter assay; format: functional, cell-based
T2 sequence (P41587 whole entry): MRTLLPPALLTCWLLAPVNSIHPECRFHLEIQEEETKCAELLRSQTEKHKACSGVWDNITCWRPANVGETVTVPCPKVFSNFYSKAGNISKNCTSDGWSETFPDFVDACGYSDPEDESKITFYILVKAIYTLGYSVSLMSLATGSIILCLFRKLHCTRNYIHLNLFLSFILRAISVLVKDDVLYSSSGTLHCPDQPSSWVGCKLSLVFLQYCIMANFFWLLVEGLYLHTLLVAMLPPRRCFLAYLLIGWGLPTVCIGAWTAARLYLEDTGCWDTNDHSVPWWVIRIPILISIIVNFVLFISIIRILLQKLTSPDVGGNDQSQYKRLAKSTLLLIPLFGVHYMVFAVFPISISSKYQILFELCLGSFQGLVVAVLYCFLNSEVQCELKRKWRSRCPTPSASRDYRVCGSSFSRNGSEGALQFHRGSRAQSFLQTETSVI

EC50 [1]	EC50 [2]	SMILES
912 nM	609 nM	CC[C@H](C)[C@H](NC(=O)[C@H](C)NC(=O)[C@H](CC(N)=O)NC(=O)CC(CC(C)C)NC(=O)[C@H](Cc1ccc(O)cc1)NC(=O)[C@H](CCCCN)NC(=O)[C@H](CCCCN)NC(=O)CC(NC(=O)[C@H](C)NC(=O)[C@H](CC(C)C)NC(=O)[C@H](CCC(N)=O)NC(=O)CC(CCCCN)NC(=O)[C@H](CCCNC(=N)N)NC(=O)[C@H](CC(C)C)NC(=O)[C@H](CCCNC(=N)N)NC(=O)CC(NC(=O)[C@H](Cc1ccc(O)cc1)NC(=O)[C@H](CC(N)=O)NC(=O)[C@H](CC(=O)O)NC(=O)CC(NC(=O)[C@H](Cc1ccccc1)NC(=O)[C@@H](NC(=O)[C@H](C)NC(=O)CC(CC(=O)O)NC(=O)[C@@H](Cc1ccccc1)NC(=O)[C@@H](N)Cc1cnc[nH]1)C(C)C)C(C)O)C(C)O)C(C)C)C(=O)NC(CC(=O)N[C@@H](CC(N)=O)C(=O)O)CC(C)C (stereo partly drawn)
> 1000 nM	989 nM	CC[C@H](C)[C@H](NC(=O)[C@H](C)NC(=O)[C@H](CC(N)=O)NC(=O)CC(CC(C)C)NC(=O)[C@H](Cc1ccc(O)cc1)NC(=O)[C@H](CCCCN)NC(=O)[C@H](CCCCN)NC(=O)CC(NC(=O)[C@H](C)NC(=O)[C@H](CC(C)C)NC(=O)[C@H](CCC(N)=O)NC(=O)CC(CCCCN)NC(=O)[C@H](CCCNC(=N)N)NC(=O)[C@H](CC(C)C)NC(=O)[C@H](CCCNC(=N)N)NC(=O)CC(NC(=O)[C@H](Cc1ccc(O)cc1)NC(=O)CC(CC(N)=O)NC(=O)[C@H](CC(=O)O)NC(=O)[C@@H](NC(=O)[C@H](Cc1ccccc1)NC(=O)CC(NC(=O)[C@H](C)NC(=O)[C@H](CC(=O)O)NC(=O)[C@@H](Cc1ccccc1)NC(=O)[C@@H](N)Cc1cnc[nH]1)C(C)C)[C@@H](C)O)C(C)O)C(C)C)C(=O)NC(CC(=O)N[C@@H](CC(N)=O)C(=O)O)CC(C)C (stereo partly drawn)
619000 nM	344 nM	CC[C@H](C)[C@H](NC(=O)[C@H](C)NC(=O)[C@H](CC(N)=O)NC(=O)CC(CC(C)C)NC(=O)[C@H](Cc1ccc(O)cc1)NC(=O)[C@H](CCCCN)NC(=O)[C@H](CCCCN)NC(=O)CC(NC(=O)[C@H](C)NC(=O)[C@H](CC(C)C)NC(=O)[C@H](CCC(N)=O)NC(=O)CC(CCCCN)NC(=O)[C@H](CCCNC(=N)N)NC(=O)[C@H](CC(C)C)NC(=O)[C@H](CCCNC(=N)N)NC(=O)CC(NC(=O)[C@H](Cc1ccc(O)cc1)NC(=O)[C@H](CC(N)=O)NC(=O)[C@H](CC(=O)O)NC(=O)[C@@H](NC(=O)[C@H](Cc1ccccc1)NC(=O)[C@@H](NC(=O)[C@H](C)NC(=O)[C@H](CC(=O)O)NC(=O)[C@@H](Cc1ccccc1)NC(=O)[C@@H](N)Cc1cnc[nH]1)C(C)C)[C@@H](C)O)C(C)O)C(C)C)C(=O)NC(CC(=O)N[C@@H](CC(N)=O)C(=O)O)CC(C)C (stereo partly drawn)
71.2 nM	50.3 nM	CC[C@H](C)[C@H](NC(=O)[C@H](C)NC(=O)[C@H](CC(N)=O)NC(=O)CC(CC(C)C)NC(=O)[C@H](Cc1ccc(O)cc1)NC(=O)[C@H](CCCCN)NC(=O)[C@H](CCCCN)NC(=O)CC(NC(=O)[C@H](C)NC(=O)[C@H](CC(C)C)NC(=O)[C@H](CCC(N)=O)NC(=O)CC(CCCCN)NC(=O)[C@H](CCCNC(=N)N)NC(=O)[C@H](CC(C)C)NC(=O)[C@H](CCCNC(=N)N)NC(=O)CC(NC(=O)[C@H](Cc1ccc(O)cc1)NC(=O)[C@H](CC(N)=O)NC(=O)[C@H](CC(=O)O)NC(=O)[C@@H](NC(=O)[C@H](Cc1ccccc1)NC(=O)CC(NC(=O)[C@H](C)NC(=O)[C@H](CC(=O)O)NC(=O)[C@@H](Cc1ccccc1)NC(=O)[C@@H](N)Cc1cnc[nH]1)C(C)C)[C@@H](C)O)C(C)O)C(C)C)C(=O)NC(CC(=O)N[C@@H](CC(N)=O)C(=O)O)CC(C)C (stereo partly drawn)
89.3 nM	> 1000 nM	CC[C@H](C)[C@H](NC(=O)[C@H](C)NC(=O)[C@H](CC(N)=O)NC(=O)CC(CC(C)C)NC(=O)[C@H](Cc1ccc(O)cc1)NC(=O)[C@H](CCCCN)NC(=O)[C@H](CCCCN)NC(=O)CC(NC(=O)[C@H](C)NC(=O)[C@H](CC(C)C)NC(=O)[C@H](CCC(N)=O)NC(=O)CC(CCCCN)NC(=O)[C@H](CCCNC(=N)N)NC(=O)[C@H](CC(C)C)NC(=O)[C@H](CCCNC(=N)N)NC(=O)CC(NC(=O)[C@H](Cc1ccc(O)cc1)NC(=O)[C@H](CC(N)=O)NC(=O)[C@H](CC(=O)O)NC(=O)[C@@H](NC(=O)[C@H](Cc1ccccc1)NC(=O)[C@H]1CCC[C@@H]1NC(=O)[C@H](C)NC(=O)[C@H](CC(=O)O)NC(=O)[C@@H](Cc1ccccc1)NC(=O)[C@@H](N)Cc1cnc[nH]1)[C@@H](C)O)C(C)O)C(C)C)C(=O)NC(CC(=O)N[C@@H](CC(N)=O)C(=O)O)CC(C)C (stereo partly drawn)
0.195 nM	0.0785 nM	CC[C@H](C)[C@H](NC(=O)[C@H](CO)NC(=O)[C@H]1CCC[C@@H]1NC(=O)[C@H](CC(C)C)NC(=O)[C@H](Cc1ccc(O)cc1)NC(=O)[C@H]1CNC[C@@H]1NC(=O)[C@H](CCCCN)NC(=O)[C@H](C)NC(=O)[C@H](C)NC(=O)[C@H]1CCC[C@@H]1NC(=O)[C@H](CCC(N)=O)NC(=O)[C@H](CCCCN)NC(=O)[C@H](CCCNC(=N)N)NC(=O)[C@H](CC(C)C)NC(=O)[C@H](CCCNC(=N)N)NC(=O)[C@@H](NC(=O)[C@H](Cc1ccc(O)cc1)NC(=O)[C@H](CC(N)=O)NC(=O)[C@H](CC(=O)O)NC(=O)[C@@H](NC(=O)[C@H](Cc1ccccc1)NC(=O)[C@@H](NC(=O)[C@H](C)NC(=O)[C@H](CC(=O)O)NC(=O)[C@H](CO)NC(=O)[C@H](Cc1cnc[nH]1)NC(C)=O)C(C)C)[C@@H](C)O)[C@@H](C)O)C(=O)N[C@@H](CCCCN)C(=O)NC(CC(N)=O)CC(=O)N[C@@H](CCCCN)C(=O)N[C@@H](CCCNC(=N)N)C(=O)N[C@@H](Cc1ccc(O)cc1)C(=O)O (stereo partly drawn) (Ac-HSDAVFTDNYTRLRKQ[X1]AAK[X2]YL[X1]SIK[ξβ3hN]KRY-OH)
> 1000 nM	0.963 nM	CC(=O)N[C@@H](Cc1cnc[nH]1)C(=O)N[C@@H](CO)C(=O)N[C@@H](CC(=O)O)C(=O)N[C@@H](C)C(=O)N[C@H](C(=O)N[C@@H](Cc1ccccc1)C(=O)N[C@H](C(=O)N[C@@H](CCC(=O)O)C(=O)N[C@@H](CC(N)=O)C(=O)N[C@@H](Cc1ccc(O)cc1)C(=O)N[C@H](C(=O)N[C@@H](CCCCN)C(=O)N[C@@H](CC(C)C)C(=O)N[C@@H](CCCNC(=N)N)C(=O)N[C@@H](CCCCN)C(=O)N[C@@H](CCC(N)=O)C(=O)N[C@@H](CC(C)C)C(=O)N[C@@H](C)C(=O)N[C@@H](C)C(=O)N[C@H]1CNC[C@@H]1C(=O)N[C@@H](CCCCN)C(=O)N[C@@H](Cc1ccc(O)cc1)C(=O)N[C@H]1CCC[C@@H]1C(=O)N[C@@H](CC(N)=O)C(=O)N[C@@H](CC(=O)O)C(=O)N[C@@H](CC(C)C)C(=O)NC(CCCCN)CC(=O)N[C@@H](CCCCN)C(=O)NCC(=O)NCCC(=O)N[C@H](C(=O)O)[C@@H](C)O)[C@@H](C)O)[C@@H](C)O)C(C)C (stereo partly drawn) (Ac-HSDAVFTENYTKLRKQLAA[X2]KY[X1]NDL[ξβ3hK]KG[βAla]T-OH)
9.09 nM	104 nM	CC(=O)N[C@@H](Cc1cnc[nH]1)C(=O)N[C@@H](CO)C(=O)N[C@@H](CC(=O)O)C(=O)N[C@@H](C)C(=O)N[C@H](C(=O)N[C@@H](Cc1ccccc1)C(=O)N[C@H](C(=O)N[C@@H](CCC(=O)O)C(=O)N[C@@H](CC(N)=O)C(=O)N[C@@H](Cc1ccc(O)cc1)C(=O)N[C@H](C(=O)N[C@@H](CCCCN)C(=O)N[C@@H](CC(C)C)C(=O)N[C@@H](CCCNC(=N)N)C(=O)N[C@@H](CCCCN)C(=O)N[C@@H](CCC(N)=O)C(=O)N[C@@H](CC(C)C)C(=O)N[C@@H](C)C(=O)N[C@H]1CCC[C@@H]1C(=O)N[C@@H](CCCCN)C(=O)N[C@@H](CCCCN)C(=O)N[C@@H](Cc1ccc(O)cc1)C(=O)N[C@H]1CCC[C@@H]1C(=O)N[C@@H](CC(N)=O)C(=O)N[C@@H](CC(=O)O)C(=O)NC(CC(=O)N[C@@H](CCCCN)C(=O)N[C@@H](CCCCN)C(=O)NCC(=O)NCCC(=O)N[C@H](C(=O)O)[C@@H](C)O)CC(C)C)[C@@H](C)O)[C@@H](C)O)C(C)C (stereo partly drawn) (Ac-HSDAVFTENYTKLRKQLA[X1]KKY[X1]ND[ξβ3hL]KKG[βAla]T-OH)
9.52 nM	0.422 nM	CC(=O)N[C@@H](Cc1cnc[nH]1)C(=O)N[C@@H](CO)C(=O)N[C@@H](CC(=O)O)C(=O)N[C@@H](C)C(=O)N[C@H](C(=O)N[C@@H](Cc1ccccc1)C(=O)N[C@H](C(=O)N[C@@H](CCC(=O)O)C(=O)N[C@@H](CC(N)=O)C(=O)N[C@@H](Cc1ccc(O)cc1)C(=O)N[C@H](C(=O)N[C@@H](CCCCN)C(=O)N[C@@H](CC(C)C)C(=O)N[C@@H](CCCNC(=N)N)C(=O)N[C@@H](CCCCN)C(=O)N[C@@H](CCC(N)=O)C(=O)N[C@H]1CCC[C@@H]1C(=O)N[C@@H](C)C(=O)N[C@@H](C)C(=O)N[C@@H](CCCCN)C(=O)N[C@H]1CNC[C@@H]1C(=O)N[C@@H](Cc1ccc(O)cc1)C(=O)N[C@@H](CC(C)C)C(=O)N[C@H]1CCC[C@@H]1C(=O)N[C@@H](CC(=O)O)C(=O)N[C@@H](CC(C)C)C(=O)N[C@@H](CCCCN)C(=O)NC(CCCCN)CC(=O)NCC(=O)NCC(=O)N[C@H](C(=O)O)[C@@H](C)O)[C@@H](C)O)[C@@H](C)O)C(C)C (stereo partly drawn) (Ac-HSDAVFTENYTKLRKQ[X1]AAK[X2]YL[X1]DLK[ξβ3hK]GGT-OH)

— ChEMBL document CHEMBL4257221, “Peptides comprising non-natural amino acids and methods of making and using the same” (2016)
